Columns and labels:
[1] = system: aquatic organisms; details: Triton X-100 and its break-down products; recent ecological studies; cited from earlier work
[2] = system: pseudorabies virus (PRV); assay type: cell-based; details: S/D treatment 0.04%-0.06% detergent, IVIG-containing liquid, 17° C.±1° C., FIG. 9A

**Q.** Which “endocrine disrupter behaviour in aquatic organisms” value [1] does the source give for “4-(1,1,3,3-tetramethylbutyl)phenol, ethoxylated [Triton X-100]” here?
**A.** can potentially behave as endocrine disrupters in aquatic organisms

**Q.** With “4-tert-octylbenzyl alcohol polyethoxylate” as the substance, how does the “inactivation kinetics compared to Triton X-100, PRV” value [2] read?
**A.** identical inactivation kinetics
